Results as given in patent US7094405B1, “Peptides which elicit a high neutralizing antibody titer, cytotoxic T lymphocyte response and T helper cell response in a broad range of MHC type recipients” (priority 1986, dated 2006).
Where two headings read alike, the source gives them in different places.

Assays:
[1] = tested on: gp160-expressing 15-12 BALB/c fibroblast cell line; format: cell-based; details: spleen cells of B10.A(5R) mice immunized with 20 nmoles PCLUS4-18, restimulated 6 days
Method: The resulting effector cells were tested on the gp160-expressing 15-12 BALB/c fibroblast cell line or on neo-only transfected fibroblast cells (not shown) as targets (FIG. 9B). […] SEM of triplicate wells was less than 7.3% of the mean.

[2] = tested on: peripheral blood lymphocytes of HIV-positive, influenza positive humans; details: cited from earlier work; for tested cases with significant IL-2 responses: peripheral blood lymphocytes of HIV-positive, influenza positive humans, previous study (42)
HIV-1 IIIB = test: Neutralization of HIV-1 IIIB by immune sera, quantitative infectivity microassay using CEM-SS cells; format: in vivo; details: 31 days after single immunization with 20 nanomole peptide
Method: (§1) Immunizations. Mice were immunized intraperitoneally with 20 nanomoles of each peptide emulsified 1:1 in Freund's Complete Adjuvant (CFA). At days 21 and 31 post immunization blood was drawn by retroorbital bleed, allowed to clot and the serum removed and frozen at −20° C.
Neutralization assays of HIV-1. The quantitative infectivity microassay using CEM-SS cells was performed as described previously (52). […] The mixtures were added to duplicate wells containing 5×10^4 DEAE-dextran treated CEM-SS cells for 1 h at 37° C., after which the virus-antibody mixtures were removed and replaced with medium, and the cells cultured only in complete medium for 5 days (for HIV-1 IIIB) or 4 days (for HIV-1 MN, determined to be optimal for each virus strain) at 37° C. in 5% CO2. Units of infectious virus were quantitated by subsequent syncytia formation of infected cells under an inverted microscope. […] The assay measures neutralization of cell-free virus in the first incubation, not inhibition of syncytium formation, which is only the readout for enumerating infectious virus. […]

[3] = tested on: BALB/c.3T3 transfectants expressing the whole gp160 protein (cell line 15-12) or P18 pulsed 18neo cells; format: in vivo, mice
Method: Mice 8-20 weeks old were immunized subcutaneously at the tail base with 20 nmoles of each peptide mixed with QS21 (15 μg), the highly purified saponin fraction from the soap bark tree Quillaja saponaria, which retains the greatest adjuvant activity but is non-toxic (103). […] Cytolytic activity of in vitro secondary CTL was measured as described previously (104) using a 6 hr. assay with ^51Cr-labeled targets. […] Maximum release was determined from supernatants of cells that were lysed by the addition of 5% Triton X-100. Spontaneous release was determined from targets cells incubated without added effectors cells. The assay was performed in triplicate, with 5000 target cells per well.
Background lysis on control 18neo fibroblasts in the absence of peptide was less than 8%. SEM of triplicate wells was less than 7.2% of the mean.

Peptide 18 = details: for ELISA: Mean p18 Specific Absorbance ± S.E.M.: 31 days after single immunization with 20 nanomole peptide, 5 mouse sera at 1:1000 serum dilution
Method: ELISA. Wells of round bottom flexible PVC microtiter plates (#3912 Falcon Labware, Oxnard, Calif.) were coated overnight at 4° C. with 100 μl of 10 μM Peptide 18, substituted peptide 18, cluster peptide 3, cluster peptide 6, 0.2 μg/ml recombinant gp 120 (ABT, Advanced Biotechnologies, Mass.) or 2 μM sperm whale myoglobin in 0.1 M carbonate buffer pH 9.6. […] The plates were blocked with 1% BSA in phosphate buffered saline (PBS) for 1-1.5 h. at 4° C. and washed with PBS containing 0.05% Tween 20 and 1% BSA (PBSTB). Next, 100 μl of test serum was added to duplicate wells and incubated for 1-1.5 h. at 4° C. Test sera were assayed at 10 fold dilutions in PBSTB ranging from 1:100-1:10,000. The wells were then washed with 200 μl PBSTB 10 times using an automatic plate washer (BioRad Model 1550) and incubated for 1 h at 4° C. with 100 μl alkaline phosphatase-conjugated goat anti-mouse IgG (Promega, Madison, Wis.) diluted 1:7500 in PBSTB. After 10 washes, bound antibodies were detected by the addition of 100 μl of 1 mg/ml paranitrophenyl phosphate as substrate. The optical density at 405 nm was read with an ELISA reader. Specific absorbance was determined as the mean optical density at 405 nm on the relevant antigen coated wells minus the optical density 405 nm on nonrelevant sperm whale myoglobin coated wells.
as §1

Sequence: RDNWRSELYKYKVVKIEPLGVAPT [PCLUS4]
- induction of CTL activity on in vitro restimulation (in words) [1]: did not induce any CTL activity
- tested cases with significant IL-2 responses [2]: 52%

Sequence: KQIINMWQEVGKAMYAPPISGQIR [PCLUS3]
- tested cases with significant IL-2 responses [2]: 73%

Sequence: AVAEGTDRVIEVVQGAYRAIRHIPRRIRQGLER [PCLUS6]
- tested cases with significant IL-2 responses [2]: 58%

Sequence: RIQRGPGRAFVTIGK [Peptide P18]
- No. of mice with positive neutralizing titers/total tested (HIV-1 IIIB; B10.BR or B10.A (A^kE^k) mice): (0/5)
- No. of mice with positive neutralizing titers/total tested (HIV-1 IIIB; BALB/c or B10.D2 (A^dE^d) mice): (0/5)
- CTL activity, linkage requirement experiment (in words) ([3]; B10.D2 (PCLUS3 series) or B10.A(5R) (PCLUS4 series) mice, QS21, restimulated with 0.1 μM P18 and rIL2): negligible
- CTL activity after single immunization in QS21 (in words) ([3]; B10.D2, B10.A(5R), B10.S(9R) mice, restimulated with P18, E:T up to 60:1): only marginal CTL activity
- induction of CTL activity on in vitro restimulation (in words) [1]: not
- ELISA: Mean p18 Specific Absorbance ± S.E.M. (Peptide 18; B10.A(5R) (A^bE^b) mice): 0.00
- ELISA: Mean p18 Specific Absorbance ± S.E.M. (Peptide 18; B10.BR or B10.A (A^kE^k) mice): 0.00
- ELISA: Mean p18 Specific Absorbance ± S.E.M. (Peptide 18; B10.HTT (A^aE^a) mice): 0.00
- ELISA: Mean p18 Specific Absorbance ± S.E.M. (Peptide 18; BALB/c or B10.D2 (A^dE^d) mice): 0.00
- peptide 18 specific antibody response (in words) (Peptide 18; mice of four strains immunized with 20 nanomoles of construct): no peptide 18 specific antibody was detected

Sequence: EQMHEDIISLWDQSLKPCVK [PCLUS 1]
- donors in which IL-2 production was stimulated ([2]; HIV seropositive, flu-positive donors): 23 of 36
- tested cases with significant IL-2 responses [2]: 64%
